In patent US11186627B2 (priority 2013, dated 2021):
“And” between values parts separate entries of the source, which are not always exact repeats. Equal values may be shown once.

How the values were obtained:
[1] = test system: A/California/7/09 (H1N1) (H1-CA09); conditions: mouse, in vivo
[2] = test system: ANN/1203/04 (H5N1) highly pathogenic avian influenza virus; design: species or system ferret; conditions: in vivo, 25 mg/kg

Question: Which survival [1] does the source give for `CCOC(=O)C1=C[C@@H](OC(CC)CC)[C@H](NC(C)=O)[C@@H](N)C1` [oseltamivir] here?
Answer: succumbed to the infection

Question: And the “mean day of death” value [2]?
Answer: 12 and 9

Question: And the survival rate [2]?
Answer: 100%
